Test results: patent US20240228487A1, “FUSED HETEROCYCLIC COMPOUND AND APPLICATION THEREOF, PHARMACEUTICAL COMPOSITIONS CONTAINING SAME AND APPLICATION THEREOF” (ZHEJIANG UNIVERSITY, priority 2021, published 2024)

Target: T1, human TRPM2 channels (Homo sapiens, UniProt O94759)
T1 construct: expressed in transfected cells
Assay: whole cell patch clamp, inhibition of TRPM2 channel current
Format: cell-based
Settings: HEK293 cells stably expressing human TRPM2, 500 μM ADPR
Method: The fused heterocyclic compound of the present invention has an inhibitory effect on the TRPM2 channel, and its pharmacological activity is measured using whole cell patch clamp technology, the corresponding steps are as follows: Incubating HEK293 cells stably expressing human TRPM2 channels in DMEM/F-12 medium containing 10% bovine serum, 50 units/mL of penicillin and […] of streptomycin under the condition of 5% CO2 and 37° C. The cells before testing are stored in the extracellular fluid (147 mM NaCl, 2 mM KCl, 1 mM MgCl2, 2 mM CaCl2, 10 mM HEPES, 13 mM glucose, pH 7.4). The electrode is filled with the electrode internal solution (147 mM NaCl, 0.05 mM EGTA, 1 mM MgCl2, 10 mM HEPES, 0.5 mM ADPR, pH=7.3), and the resistance is maintained at 3-5 M Ω. Administering ADPR into cells through electrodes, and detecting the ADPR concentration used to activate TRPM2 as 500 μM, when detecting a stable current, perfusing the corresponding concentration of fused heterocyclic compound II-1 into the extracellular fluid for at least 60 seconds. record the change in current magnitude using voltage ramp mode, changing the voltage from −100 mV to+100 mV within 500 ms, with a normal clamp voltage of 0 mV and a TRPM every 5 seconds; finally, replacing the extracellular fluid with a solution with pH=5.0 to block the TRPM2 current, the electrophysiological current test results obtained are shown in Table 1, and the electrophysiological current graph obtained is shown in FIG. 1. Similarly, administering corresponding concentrations of other fused heterocyclic compounds (II-2˜II-54, III-1˜III-11) into the extracellular fluid, taking electrophysiological tests using the same method, the results are shown in Table 1. The electrophysiological representative current graphs of some fused heterocyclic compounds (II-9, II-19, and II-36) inhibiting TRPM2 channel current are shown in FIG. 1.

T1 sequence (O94759 whole entry): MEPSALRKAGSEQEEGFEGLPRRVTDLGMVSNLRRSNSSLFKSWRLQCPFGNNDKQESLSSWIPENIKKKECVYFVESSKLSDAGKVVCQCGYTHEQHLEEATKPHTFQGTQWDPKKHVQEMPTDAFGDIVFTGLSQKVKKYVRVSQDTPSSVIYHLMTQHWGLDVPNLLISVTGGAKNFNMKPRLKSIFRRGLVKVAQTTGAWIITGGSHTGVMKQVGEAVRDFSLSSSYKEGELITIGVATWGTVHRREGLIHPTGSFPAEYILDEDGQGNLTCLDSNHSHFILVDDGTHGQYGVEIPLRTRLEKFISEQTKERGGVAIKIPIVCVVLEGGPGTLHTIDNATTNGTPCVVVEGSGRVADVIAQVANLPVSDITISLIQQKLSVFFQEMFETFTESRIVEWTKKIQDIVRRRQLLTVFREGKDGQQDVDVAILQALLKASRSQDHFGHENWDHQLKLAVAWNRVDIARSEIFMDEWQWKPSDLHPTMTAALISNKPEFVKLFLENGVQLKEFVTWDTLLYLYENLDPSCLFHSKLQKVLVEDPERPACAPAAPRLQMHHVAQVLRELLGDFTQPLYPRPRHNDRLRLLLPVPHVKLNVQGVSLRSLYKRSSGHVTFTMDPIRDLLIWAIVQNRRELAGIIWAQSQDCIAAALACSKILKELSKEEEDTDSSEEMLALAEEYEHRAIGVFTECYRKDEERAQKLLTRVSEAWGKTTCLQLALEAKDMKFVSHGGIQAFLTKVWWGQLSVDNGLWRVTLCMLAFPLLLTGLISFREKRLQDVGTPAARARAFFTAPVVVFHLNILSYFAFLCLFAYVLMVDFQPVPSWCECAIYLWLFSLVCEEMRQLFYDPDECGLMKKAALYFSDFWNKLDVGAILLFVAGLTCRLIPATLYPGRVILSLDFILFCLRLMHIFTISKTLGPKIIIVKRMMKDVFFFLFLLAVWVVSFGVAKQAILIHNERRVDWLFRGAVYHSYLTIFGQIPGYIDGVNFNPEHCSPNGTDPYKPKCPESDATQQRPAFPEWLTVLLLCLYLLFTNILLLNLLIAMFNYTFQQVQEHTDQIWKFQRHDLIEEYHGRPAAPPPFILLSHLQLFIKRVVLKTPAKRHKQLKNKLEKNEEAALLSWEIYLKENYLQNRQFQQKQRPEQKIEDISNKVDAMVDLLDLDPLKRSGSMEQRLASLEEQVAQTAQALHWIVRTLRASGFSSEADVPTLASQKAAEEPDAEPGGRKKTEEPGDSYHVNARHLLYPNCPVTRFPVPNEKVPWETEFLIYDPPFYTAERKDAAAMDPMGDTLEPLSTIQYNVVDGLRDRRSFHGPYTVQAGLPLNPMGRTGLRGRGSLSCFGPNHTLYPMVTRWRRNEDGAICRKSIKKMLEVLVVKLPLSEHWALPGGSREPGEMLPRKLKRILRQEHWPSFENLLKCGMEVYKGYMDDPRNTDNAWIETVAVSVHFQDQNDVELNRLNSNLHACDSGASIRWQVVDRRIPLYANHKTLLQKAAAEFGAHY

CCN(CC)C(=O)c1cc(C(=O)c2ccccc2)n2cccc2c1 [II-23, 5-Benzoyl-N, N-diethylindolizine-7-formamide]
IC50: 1 to 10 µM
